Measurements reported in patent US4285953A, “Inhibition of biosynthesis of triglycerides by certain N-β-phenethyl-N-pyridylalkylamines” (Shell Oil Company, priority 1980, dated 1981).

Test system: enzyme prepared from pig adipose tissue (synthesis of triglycerides)
Test: Inhibition of triglyceride synthesis by enzyme preparation from pig adipose tissue (14C-glycerol-3-phosphate incorporation)
Format: biochemical
Conditions: test compound 1000 micrograms per milliliter, 5% DMSO, 8 minutes at 37° C; compared to controls without test compound; average of two animals
Procedure: An enzyme was prepared by homogenizing one gram of slices from pig adipose tissue, each slice being approximately 0.3 mm thick, in onemilliliter portions of a liquid medium (Liquid A). The homogenate then was centrifuged (10.000 g×15 minutes), and the supernatant phase (the enzyme) was poured through cheesecloth to remove fat that had risen to the top of the centrifuge tubes.
Liquid A had the following composition (in water):
0.15 M potassium chloride, 1 mM ethylenediaminetetracetic acid, […] Hepes (N-2-hydroxyethylpiperazine-N'-2-ethanesulfonic acid), 1 mM DTT (dithiothreitol), pH=7.0.
A solution of the test compound (Liquid B) was prepared: 10 milligrams of test compound plus 0.5 milliliter dimethylsulfoxide (DMSO) plus 1.83 milliliters of glass-distilled water.
A premix (Liquid C) was freshly prepared before each test, from the following components: […]
0.25 milliliter of enzyme then was added. […] Ten milliliters of a 2:1 (v/v) mixture of toluene and Triton X-100 containing 0.27% New England Nuclear Omnifluor was added, and the radioactivity was determined in a liquid scintillation counter. […]
The percent inhibition by the test compound compared to the controls (no test compound) was determined.

| SMILES | Percent Inhibition |
| --- | --- |
| Cc1ccc(CC(C)NCCCC(c2ccccc2)c2ccccn2)cc1.O=C(O)/C=C\C(=O)O (centres unmarked) [Compound 1, N-(1-methyl-2-(4-methylphenyl)ethyl)-delta-phenyl-2-pyridinebutanamine, maleic acid salt] | 97 |
| CC(C)(Cc1ccc(Cl)cc1)NCCCC(c1ccccc1)c1ccccn1.O=C(O)/C=C\C(=O)O (centres unmarked) [Compound 2, N-(2-(4-chlorophenyl)-1,1-dimethylethyl)-delta-phenyl-2-pyridinebutanamine, maleic acid salt] | 93 |
